Data set [1] addresses T1, Prothrombin (Homo sapiens, UniProt P00734). The data set is described as follows: Inhibitory activity against coagulation factor II (thrombin).
In the next data set the target is Serine protease 1 (Homo sapiens, UniProt P07477). Kind of data set: […].
The target of data set [2] is Tissue-type plasminogen activator (Homo sapiens, UniProt P00750). Kind of data set: inhibitory activity against human tissue plasminogen activator.
Data set [3] concerns the target T1, Prothrombin. The data set is described as follows: Concentration required for 50% inhibition of dilute prothrombin time. In kind it is functional.
The nature of data set [4]: Percent compound remaining after 2 hr incubation with human S9 liver fraction. In kind it is ADME, subcellular. Particulars: read-out: Activity.
A further data set addresses Coagulation factor X (Homo sapiens, UniProt P00742). Kind of data set: Inhibitory activity against coagulation factor Xa.
Data set [5] addresses T1, Prothrombin. Kind of data set: Concentration required to double plasma clotting time of prothrombin time. In kind it is functional, cell-free.

For orientation: Ki means a dissociation constant, usually derived from enzyme kinetics or from competition with a known ligand. Broadly, the IC50 is the concentration that gives 50% inhibition. A high value points to lower potency.

SMILES strings stand for the structures.

Tissue-type plasminogen activator, sequence (P00750 whole entry): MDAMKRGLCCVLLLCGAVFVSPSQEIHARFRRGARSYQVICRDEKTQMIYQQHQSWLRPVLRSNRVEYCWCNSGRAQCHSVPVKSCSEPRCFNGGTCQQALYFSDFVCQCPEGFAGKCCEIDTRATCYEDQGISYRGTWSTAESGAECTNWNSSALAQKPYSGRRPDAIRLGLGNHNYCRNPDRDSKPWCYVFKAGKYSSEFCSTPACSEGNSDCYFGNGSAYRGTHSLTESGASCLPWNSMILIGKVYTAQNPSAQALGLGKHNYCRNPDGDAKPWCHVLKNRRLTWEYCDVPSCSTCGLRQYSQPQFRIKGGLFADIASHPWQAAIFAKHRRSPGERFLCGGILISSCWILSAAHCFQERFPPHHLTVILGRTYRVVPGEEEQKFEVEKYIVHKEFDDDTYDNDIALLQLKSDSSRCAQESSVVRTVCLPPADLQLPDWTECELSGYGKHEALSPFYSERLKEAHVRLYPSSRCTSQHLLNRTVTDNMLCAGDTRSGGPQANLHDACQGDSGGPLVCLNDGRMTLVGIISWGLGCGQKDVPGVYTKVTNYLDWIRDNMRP
Serine protease 1, sequence (P07477 whole entry): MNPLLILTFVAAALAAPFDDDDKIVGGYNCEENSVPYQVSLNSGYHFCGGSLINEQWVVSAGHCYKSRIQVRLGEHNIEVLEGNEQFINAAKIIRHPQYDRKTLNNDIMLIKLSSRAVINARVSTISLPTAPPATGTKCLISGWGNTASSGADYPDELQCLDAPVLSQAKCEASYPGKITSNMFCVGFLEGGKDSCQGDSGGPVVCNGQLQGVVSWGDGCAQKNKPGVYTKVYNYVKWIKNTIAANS
Coagulation factor X, sequence (P00742 41-179 limits assumed): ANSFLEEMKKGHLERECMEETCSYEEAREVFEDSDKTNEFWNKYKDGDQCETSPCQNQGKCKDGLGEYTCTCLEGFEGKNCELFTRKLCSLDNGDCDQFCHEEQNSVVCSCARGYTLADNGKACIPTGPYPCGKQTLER
Coagulation factor X, sequence (P00742 235-488 limits assumed): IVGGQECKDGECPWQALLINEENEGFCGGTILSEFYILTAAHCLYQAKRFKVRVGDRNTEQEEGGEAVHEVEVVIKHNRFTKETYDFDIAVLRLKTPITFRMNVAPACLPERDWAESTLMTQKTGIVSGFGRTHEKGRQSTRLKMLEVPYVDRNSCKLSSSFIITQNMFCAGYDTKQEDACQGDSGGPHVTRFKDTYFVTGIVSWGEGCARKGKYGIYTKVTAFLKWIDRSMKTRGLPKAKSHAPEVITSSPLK

For `CC(C)N1CCC(NC(=O)c2cc3ccccc3n2CC(=O)Nc2ccc(Cl)cc2)CC1`, the Ki on Prothrombin [1] was greater than 10 µM; at Serine protease 1, greater than 100 µM; in data set [2] it was greater than 100 µM. This compound also came in with an IC50 against Prothrombin [3] of 0.02 µM. For the same compound, the remaining at 2 h in data set [4] is 67%.
`CC(C)N1CCC(NC(=O)c2cc3ccccc3n2CC(=O)Nc2cccc(Cl)c2)CC1` came in with a Ki on Coagulation factor X of 0.287 µM.
Take `CC(C)N1CCC(NC(=O)c2cc3ccccc3n2CC(=O)Nc2ccc(Cl)cn2)CC1`: the Ki was greater than 10 µM on Prothrombin [1], greater than 100 µM on Serine protease 1 and greater than 100 µM in data set [2]. Besides, the IC50 against Prothrombin [3] turned out to be 0.02 µM. In addition, the remaining at 2 h in data set [4] worked out at 95%.
`CC(C)N1CCC(NC(=O)c2cc3ccccc3n2Cc2ccc(Cl)cc2)CC1` yielded a Ki at Coagulation factor X of 2.5 µM.
Same read-out and setting: the result for `CC(C)N1CCC(NC(=O)c2cc3ccccc3n2-c2cccc(Cl)c2)CC1` reads 9.01 µM.
Still for that read-out and setting: the result for `COc1cccc(CCn2c(C(=O)NC3CCN(C(C)C)CC3)cc3ccccc32)c1` reads greater than 10 µM.
For the compound `CC(C)N1CCC(NC(=O)c2cc3ccccc3n2Cc2cc3ccc(Cl)cc3s2)CC1`, the Ki on Prothrombin [1] was 9.04 µM; at Serine protease 1, greater than 100 µM; in data set [2], greater than 100 µM. The same compound showed an IC50 against Prothrombin [3] of 0.89 µM. The remaining at 2 h in data set [4] was 98%. The compound further yielded a Concentration at Prothrombin [5] of 14.1 µM.
For `CC(C)N1CCC(NC(=O)c2cc3ccccc3n2Cc2cnc(-c3ccc(Cl)cc3)s2)CC1`, affinity at Coagulation factor X was put at a Ki of 2.73 µM.
`CC(C)N1CCC(NC(=O)c2cc3ccccc3n2Cc2cc(-c3ccc(Cl)s3)on2)CC1` registered a Ki on Serine protease 1 greater than 100 µM. Further, the remaining at 2 h in data set [4] stood at 94%.
On Coagulation factor X, `COc1cccc(-n2c(C(=O)NC3CCN(C(C)C)CC3)cc3ccccc32)c1` had a Ki of 2.48 µM.

The values above are taken from ChEMBL document CHEMBL1137150, “Factor Xa inhibitors based on a 2-carboxyindole scaffold: SAR of neutral P1 substituents” (Bioorg Med Chem Lett, 2004).
